Molecular target: T1, human α1A-receptors (Homo sapiens, UniProt P35348)
T1 construct: expressed in transfected cells
T1 sequence (P35348 1-466): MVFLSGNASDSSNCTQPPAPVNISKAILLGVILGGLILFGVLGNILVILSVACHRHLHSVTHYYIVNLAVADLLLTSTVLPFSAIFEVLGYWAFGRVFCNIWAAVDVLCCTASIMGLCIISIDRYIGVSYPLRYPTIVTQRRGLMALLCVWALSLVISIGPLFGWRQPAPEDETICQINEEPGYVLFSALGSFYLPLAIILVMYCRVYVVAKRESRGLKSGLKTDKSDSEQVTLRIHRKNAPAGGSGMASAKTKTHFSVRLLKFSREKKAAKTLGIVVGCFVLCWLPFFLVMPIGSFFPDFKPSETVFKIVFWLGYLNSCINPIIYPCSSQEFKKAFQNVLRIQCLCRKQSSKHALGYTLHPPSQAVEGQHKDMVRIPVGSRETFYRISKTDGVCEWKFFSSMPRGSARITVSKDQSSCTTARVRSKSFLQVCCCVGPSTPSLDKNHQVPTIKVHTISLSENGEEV
Experiment: Phenylephrine-induced Ca2+ release in CHO cells expressing human α1A-receptors (fluo-4)
Type: cell-based
Conditions: 10 µM phenylephrine, 1 mM EGTA buffer
Procedure: For measurement of norgestimate effects on adrenoceptor signaling a CHO cell line stably expressing human α1A-receptors (GenBank accession number NM_000680.2) under control of a CMV promoter was used. CHO cells were kept in HAM's F-12 medium (with glutaMAX I) supplemented with 10% (v/v) fetal bovine serum (Biochrom), 1 mM glutamine, and 0.6 mg/ml geneticin.
[Ca^2+]i measurements in CHO cells stably expressing human α1A –receptors were performed essentially as described for HEK-FITR cells. The α1- agonist phenylephrine was used for receptor stimulation.
Supplementary file pone.0035393.s001.tif: Figure S1 Stimulatory effect of norgestimate on α1A- receptor-mediated Ca^2+ signaling in CHO cells. (A) Phenylephrine (Phe) -induced changes of [Ca^2+]i were measured in a stable CHO cell line expressing human α1A-adrenoceptors. Cells loaded with fluo-4 were pre-incubated with or without 30 µM norgestimate (NG) and challenged with 10 µM phenylephrine or control buffer. Representative traces are shown. Fluorometric imaging plate reader [Ca^2+]i measurements were performed essentially as described for HEK-FITR cells (see Materials and Methods) with the exception that the extracellular buffer contained 1 mM EGTA instead of 2 mM Ca^2+. (B) The relative increase in Ca^2+ release induced in the presence of different concentrations of norgestimate is shown. […]

## C#C[C@]1(OC(C)=O)CC[C@H]2[C@@H]3CCC4=CC(=NO)CC[C@@H]4[C@H]3CC[C@@]21CC (mixture of isomers) [norgestimate]
  Effect on phenylephrine-induced Ca2+ release: significantly stimulated

Reference: publication PMC3328449, “Inhibition of Diacylglycerol–Sensitive TRPC Channels by Synthetic and Natural Steroids” (PLoS ONE, 2012)
